{"source": "patent US12576069B2", "about": "“Compositions and methods for treating slow-flow vascular malformations” (YALE UNIVERSITY, priority 2019, dated 2026)", "key": {"[1]": {"test_system": "congenital vascular malformations", "conditions": "conventional treatment of vascular malformations; at times lethal; cited from earlier work"}, "[2]": {"conditions": "cited from earlier work"}, "[3]": {"test_system": "complicated vascular malformations", "conditions": "cited from earlier work"}, "[4]": {"conditions": "oral rapamycin, toxicities attributable to rapamycin"}}, "note": "Like-named read-outs stand apart in the source and are kept apart here."}
{"smiles": "CCO", "note": "[absolute ethanol, ethanol]", "values": [{"measurement": "side effect profile", "setting": "[1]", "value": "up to 50%"}]}
{"smiles": "CO[C@H]1C[C@@H]2CC[C@@H](C)[C@@](O)(O2)C(=O)C(=O)N2CCCC[C@H]2C(=O)O[C@H]([C@H](C)C[C@@H]2CC[C@@H](O)[C@H](OC)C2)CC(=O)[C@H](C)/C=C(\\C)[C@@H](O)[C@@H](OC)C(=O)[C@H](C)C[C@H](C)/C=C/C=C/C=C/1C", "note": "[rapamycin]", "values": [{"measurement": "sirolimus AUC relative to temsirolimus AUC", "setting": "[2]; single 25 mg intravenous dose of temsirolimus, patients with cancer", "value": 2.7, "unit": "fold"}, {"measurement": "patients taken off of the study due to persistent adverse effects", "setting": "[3]; oral rapamycin, phase II trial enrolling 61 patients", "value": "Two"}, {"measurement": "Grade 3 and higher blood/bone marrow toxicity, share of patients", "setting": "[3]; [4]", "value": 27, "unit": "%"}, {"measurement": "Grade 3 and higher gastrointestinal toxicity, share of patients", "setting": "[3]; [4]", "value": 3, "unit": "%"}, {"measurement": "Grade 3 and higher metabolic/laboratory toxicity, share of patients", "setting": "[3]; [4]", "value": 3, "unit": "%"}, {"measurement": "other commonly reported negative side effects", "setting": "[3]; systemic rapamycin", "value": "stomatitis, headache, infections, myelodepression, acne, and hyperlipidemia"}]}
{"smiles": "CO[C@H]1C[C@@H]2CC[C@@H](C)[C@@](O)(O2)C(=O)C(=O)N2CCCC[C@H]2C(=O)O[C@H]([C@H](C)C[C@@H]2CC[C@@H](OC(=O)C(C)(CO)CO)[C@H](OC)C2)CC(=O)[C@H](C)/C=C(\\C)[C@@H](O)[C@@H](OC)C(=O)[C@H](C)C[C@H](C)/C=C/C=C/C=C/1C", "note": "[Temsirolimus]", "values": [{"measurement": "peak concentration Cmax, temsirolimus compared with sirolimus", "setting": "[2]; IV infusion, theoretical comparison of equal units", "value": "almost similar"}, {"measurement": "pain relief at follow-up", "setting": "venous malformation; Example 1, post-operative day two, 14, and 90", "value": "excellent pain relief"}, {"measurement": "venous flow in the malformation, color flow Doppler", "setting": "venous malformation; Example 2, left nasal venous malformation, FIGS. 5A-5B", "value": "diminished venous flow"}, {"measurement": "pain relief at follow-up", "setting": "venous malformation; Example 2, post-operative day 14 and day ~90", "value": "partial pain relief"}, {"measurement": "fevers or infection at follow-up", "setting": "venous malformation; human, in vivo", "value": "no evidence of fevers or infection"}, {"measurement": "fevers, infection at follow-up", "setting": "venous malformation; human, in vivo", "value": "no evidence of fevers, infection"}, {"measurement": "normal arterial flow adjacent to the malformation, spectral waveform analysis", "setting": "venous malformation; human, in vivo", "value": "preservation of intervening normal arterial network of the face"}, {"measurement": "perioperative complications", "setting": "venous malformation; human, in vivo", "value": "no perioperative complications"}, {"measurement": "post-operative labs", "setting": "venous malformation; human, in vivo", "value": "within expected, normal limits"}]}
